Laboratory results taken from PubChem BioAssay (NCI).
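Cultured in 96-well plates, cells were exposed to test compound for 48 hours across five concentrations. The concentration for 50% growth inhibition is given as GI50. TGI is the concentration that stops growth completely.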

Assays:
Experiment in all cases: NCI tumour cell line growth inhibition, 48 h
[1] = test system: SF-268 CNS
[2] = test system: OVCAR-4 ovarian
[3] = test system: HCT-15 colon
[4] = test system: M14 melanoma
[5] = test system: NCI-H226 lung
[6] = test system: SK-OV-3 ovarian
[7] = test system: IGROV1 ovarian
[8] = test system: UACC-257 melanoma
[9] = test system: HT29 colon
[10] = test system: DU-145 prostate
[11] = test system: 786-0 renal
[12] = test system: U251 CNS
[13] = test system: MDA-MB-231 breast
[14] = test system: SR leukemia
[15] = test system: SF-295 CNS
[16] = test system: HS 578T breast
[17] = test system: UACC-62 melanoma
[18] = test system: NCI/ADR-RES ovarian
[19] = test system: HCT-116 colon
[20] = test system: RPMI-8226 leukemia
[21] = test system: SW-620 colon
[22] = test system: SK-MEL-28 melanoma
[23] = test system: HOP-92 NSCLC
[24] = test system: PC-3 prostate
[25] = test system: A498 renal
[26] = test system: SNB-19 CNS
[27] = test system: MCF7 breast
[28] = test system: OVCAR-5 ovarian
[29] = test system: COLO 205 colon
[30] = test system: TK-10 renal
[31] = test system: HL-60(TB) leukemia
[32] = test system: CAKI-1 renal
[33] = test system: NCI-H522 lung
[34] = test system: CCRF-CEM leukemia
[35] = test system: SK-MEL-2 melanoma
[36] = test system: BT-549 breast
[37] = test system: SF-539 CNS
[38] = test system: MOLT-4 leukemia
[39] = test system: OVCAR-8 ovarian
[40] = test system: OVCAR-3 ovarian
[41] = test system: SK-MEL-5 melanoma
[42] = test system: UO-31 renal
[43] = test system: SN12C renal
[44] = test system: SNB-75 CNS
[45] = test system: MALME-3M melanoma
[46] = test system: ACHN renal
[47] = test system: LOX IMVI melanoma
[48] = test system: HCC-2998 colon
[49] = test system: NCI-H23 lung
[50] = test system: NCI-H460 lung
[51] = test system: EKVX NSCLC
[52] = test system: KM12 colon
[53] = test system: HOP-62 NSCLC
[54] = test system: A549 NSCLC
[55] = test system: K-562 leukemia
[56] = test system: MDA-MB-435
[57] = test system: RXF 393 renal

Nc1n[nH]c2ccc([C@@H]3Nc4ccc5[nH]ncc5c4[C@H]4[C@H]5CCC(C5)[C@H]43)cc12
GI50 [1]: 1560 nM | TGI [1]: 43.7 µM | GI50 [2]: 2050 nM | TGI [2]: > 100000 nM | GI50 [3]: 407 nM | TGI [3]: > 100000 nM | GI50 [4]: 293 nM | TGI [4]: > 40.7 µM | GI50 [5]: 331 nM | TGI [5]: 2880 nM | GI50 [6]: 823 nM | TGI [6]: > 80.1 µM | GI50 [7]: 513 nM | TGI [7]: > 51600 nM | GI50 [8]: 15.8 µM | TGI [8]: > 100 µM | GI50 [9]: 350 nM | TGI [9]: > 36.8 µM | GI50 [10]: 445 nM | TGI [10]: > 28300 nM | GI50 [11]: 757 nM | TGI [11]: 33.8 µM | GI50 [12]: 435 nM | TGI [12]: > 100000 nM | GI50 [13]: 688 nM | TGI [13]: 18.5 µM | GI50 [14]: 280 nM | TGI [14]: 20.2 µM | GI50 [15]: 302 nM | TGI [15]: 3470 nM | GI50 [16]: 310 nM | TGI [16]: 12.7 µM | GI50 [17]: 389 nM | TGI [17]: > 61.1 µM | GI50 [18]: 525 nM | TGI [18]: > 44100 nM | GI50 [19]: 404 nM | TGI [19]: > 100000 nM | GI50 [20]: 338 nM | TGI [20]: 2370 nM | GI50 [21]: 372 nM | TGI [21]: > 100000 nM | GI50 [22]: 910 nM | TGI [22]: > 76.3 µM | GI50 [23]: 1450 nM | TGI [23]: 14.9 µM | GI50 [24]: 397 nM | TGI [24]: 23 µM | GI50 [25]: 168 nM | TGI [25]: 641 nM | GI50 [26]: 515 nM | TGI [26]: > 100 µM | GI50 [27]: 363 nM | TGI [27]: > 100 µM | GI50 [28]: 572 nM | TGI [28]: 49.6 µM | GI50 [29]: 375 nM | TGI [29]: 5.68 µM | GI50 [30]: 8.25 µM | TGI [30]: > 79.5 µM | GI50 [31]: 247 nM | TGI [31]: 654 nM | GI50 [32]: 436 nM | TGI [32]: 24.7 µM | GI50 [33]: 310 nM | TGI [33]: 3.57 µM | GI50 [34]: 383 nM | TGI [34]: > 100 µM | GI50 [35]: 1240 nM | TGI [35]: 40.8 µM | GI50 [36]: 489 nM | TGI [36]: 9.29 µM | GI50 [37]: 238 nM | TGI [37]: 673 nM | GI50 [38]: 407 nM | TGI [38]: > 51.3 µM | GI50 [39]: 479 nM | TGI [39]: > 47500 nM | GI50 [40]: 230 nM | TGI [40]: 640 nM | GI50 [41]: 403 nM | TGI [41]: 2600 nM | GI50 [42]: 698 nM | TGI [42]: 46.5 µM | GI50 [43]: 618 nM | TGI [43]: > 89.7 µM | GI50 [44]: 160 nM | TGI [44]: 11.3 µM | GI50 [45]: 461 nM | TGI [45]: > 47.5 µM | GI50 [46]: 895 nM | TGI [46]: > 72000 nM | GI50 [47]: 700 nM | TGI [47]: 14.5 µM | GI50 [48]: 381 nM | TGI [48]: 11.6 µM | GI50 [49]: 654 nM | TGI [49]: > 46000 nM | GI50 [50]: 358 nM | TGI [50]: 10.9 µM | GI50 [51]: 606 nM | TGI [51]: > 100 µM | GI50 [52]: 406 nM | TGI [52]: 10.8 µM | GI50 [53]: 597 nM | TGI [53]: > 74 µM | GI50 [54]: 586 nM | TGI [54]: > 100 µM | GI50 [55]: 264 nM | TGI [55]: > 100 µM

C#Cc1ccc(-n2c(/C=C/c3ccc(Cl)c(F)c3)nc3ncccc3c2=O)cc1
GI50 [2]: 270 nM | TGI [2]: 1030 nM | GI50 [16]: 419 nM | TGI [16]: > 100 µM | GI50 [20]: 351 nM | TGI [20]: 2030 nM | GI50 [34]: 290 nM | TGI [34]: > 100 µM | GI50 [38]: 546 nM | TGI [38]: > 100 µM | GI50 [47]: 183 nM | TGI [47]: 0.504 µM | GI50 [55]: 337 nM | TGI [55]: > 100 µM

CCC(C)C1NC(=O)c2nc(oc2-c2ccccc2)-c2csc(n2)-c2csc(n2)-c2nc(oc2C)-c2coc(n2)CNC(=O)C(C(C)CC)NC1=O (stereo unspecified)
GI50 [1]: 24.9 nM | TGI [1]: 0.154 µM | GI50 [2]: 25.8 nM | TGI [2]: 98.2 nM | GI50 [3]: 36.1 nM | TGI [3]: 180 nM | GI50 [7]: 26.3 nM | TGI [7]: 122 nM | GI50 [10]: 21.8 nM | TGI [10]: 65.8 nM | GI50 [56]: 46.4 nM | TGI [56]: 163 nM | GI50 [11]: 49.9 nM | TGI [11]: 0.172 µM | GI50 [12]: 12.6 nM | TGI [12]: 49.2 nM | GI50 [13]: 35 nM | TGI [13]: 0.135 µM | GI50 [14]: 32.7 nM | TGI [14]: 0.212 µM | GI50 [57]: 33.4 nM | TGI [57]: 166 nM | GI50 [15]: 46.9 nM | TGI [15]: 178 nM | GI50 [16]: 42.4 nM | TGI [16]: 0.218 µM | GI50 [18]: 278 nM | TGI [18]: 2380 nM | TGI [19]: 33.5 nM | TGI [21]: 32.4 nM | GI50 [23]: 19.8 nM | TGI [23]: 0.134 µM | GI50 [24]: < 13.7 nM | TGI [24]: 0.116 µM | GI50 [25]: 160 nM | TGI [25]: 343 nM | GI50 [28]: 51.5 nM | TGI [28]: 0.189 µM | GI50 [32]: 37.1 nM | TGI [32]: 0.151 µM | GI50 [36]: 65.9 nM | TGI [36]: 0.204 µM | GI50 [37]: 111 nM | TGI [37]: 239 nM | GI50 [39]: 21.6 nM | TGI [39]: 182 nM | GI50 [40]: 20.1 nM | TGI [40]: 64.2 nM | GI50 [42]: 51.5 nM | TGI [42]: 0.185 µM | GI50 [44]: 35.4 nM | TGI [44]: 0.175 µM | GI50 [46]: 18.8 nM | TGI [46]: 114 nM | GI50 [48]: 54.3 nM | TGI [48]: 0.249 µM | GI50 [49]: 40 nM | TGI [49]: 155 nM | GI50 [50]: 10.2 nM | TGI [50]: 0.0268 µM | GI50 [52]: 22.3 nM | TGI [52]: 0.119 µM
